Assay results as given in publication PMC10714133 (RSC Advances, 2023).

Key:
P. knowlesi A1H1 = assay: Plasmodium lactate dehydrogenase; format: cell-based, Plasmodium knowlesi; details: for Selectivity index (SI) P. knowlesi: IC50 WRL-68 / EC50 PkA1H1; for Antimalarial activity class against A1H1 strain: class by EC50 threshold; for EC50 against A1H1 strain, fold higher than CQ: relative to chloroquine diphosphate
P. falciparum 3D7 = assay: Plasmodium lactate dehydrogenase; format: cell-based, Plasmodium falciparum; details: for Antimalarial activity class against 3D7 strain: class by EC50 threshold; for EC50 against 3D7, fold higher than CQ: relative to chloroquine diphosphate; for Selectivity index (SI) P. falciparum: IC50 WRL-68 / EC50 Pf3D7
[1] = system: WRL-68 cell (human normal liver cell line); assay: MTT cytotoxicity assay; format: cell-based; details: read-out: WRL-68 cell (mammalian cell) IC50 (μM) ± SD, 72 hours incubation

Compound	Selectivity index (SI) P. knowlesi (P. knowlesi A1H1)	Selectivity index (SI) P. falciparum (P. falciparum 3D7)	also measured
O=C(/C=C/c1ccc(CN2CCCCC2)c(O)c1)c1ccc(F)cc1 [Compound 2a, (E)-1-(4-Fluorophenyl)-3-(3-hydroxy-4-(piperidin-1-ylmethyl)phenyl)prop-2-en-1-one]	10.50		Antimalarial activity class against A1H1 strain (P. knowlesi A1H1): active; EC50 against A1H1 strain, fold higher than CQ (P. knowlesi A1H1): about 66 fold; Antimalarial activity class against 3D7 strain (P. falciparum 3D7): potential (EC50 < 1 μM as potential activity); EC50 against 3D7, fold higher than CQ (P. falciparum 3D7): about 48 fold
O=C(/C=C/c1ccc(O)c(CN2CCCCC2)c1)c1ccc(F)cc1 [Compound 2c, (E)-1-(4-Fluorophenyl)-3-(4-hydroxy-3-(piperidin-1-ylmethyl)phenyl)prop-2-en-1-one]	1.09		
CCN(CC)CCCC(C)Nc1ccnc2cc(Cl)ccc12 (stereo not drawn) [CQ, chloroquine diphosphate, reference compound]	>2500	>2500	
O=C(/C=C/c1cccc(O)c1)c1ccc(Cl)cc1 [Compound 1d, (E)-1-(4-Chlorophenyl)-3-(3-hydroxyphenyl)prop-2-en-1-one]	0.31		
CC1CCN(Cc2cc(/C=C/C(=O)c3ccc(Cl)cc3)ccc2O)CC1 [Compound 2f, (E)-1-(4-Chlorophenyl)-3-(4-hydroxy-3-((4-methylpiperidin-1-yl)methyl)phenyl)prop-2-en-1-one]	4.10	4.73	Antimalarial activity class against A1H1 strain (P. knowlesi A1H1): active; Antimalarial activity class against 3D7 strain (P. falciparum 3D7): good
O=C(/C=C/c1ccc(O)cc1)c1ccc(Cl)cc1 [Compound 1c, (E)-1-(4-Chlorophenyl)-3-(4-hydroxyphenyl)prop-2-en-1-one]	0.52		
O=C(/C=C/c1cccc(O)c1)c1ccc(F)cc1 [Compound 1a, (E)-1-(4-Fluorophenyl)-3-(3-hydroxyphenyl)prop-2-en-1-one]	1.34	1.50	
O=C(/C=C/c1ccc(O)cc1)c1ccc(F)cc1 [Compound 1b, (E)-1-(4-Fluorophenyl)-3-(4-hydroxyphenyl)prop-2-en-1-one]	0.14		
O=C(/C=C/c1ccc(CN2CCCCC2)c(O)c1)c1ccc(Br)cc1 [Compound 2h, (E)-1-(4-Bromophenyl)-3-(3-hydroxy-4-(piperidin-1-ylmethyl)phenyl)prop-2-en-1-one]			EC50 against A1H1 strain, fold higher than CQ (P. knowlesi A1H1): about 3 fold; Antimalarial activity class against 3D7 strain (P. falciparum 3D7): potential (EC50 < 1 μM as potential activity); EC50 against 3D7, fold higher than CQ (P. falciparum 3D7): 83 fold; IC50 [1]: > 99 µM
CC1CCN(Cc2ccc(/C=C/C(=O)c3ccc(Cl)cc3)cc2O)CC1 [Compound 2g, (E)-1-(4-Chlorophenyl)-3-(3-hydroxy-4-((4-methylpiperidin-1-yl)methyl)phenyl)prop-2-en-1-one]	0.47	0.54	
O=C(/C=C/c1ccc(O)c(CN2CCOCC2)c1)c1ccc(F)cc1 [Compound 2b, (E)-1-(4-Fluorophenyl)-3-(4-hydroxy-3-(morpholinomethyl)phenyl)prop-2-en-1-one]	0.65		
